Laboratory results as given in patent publication US5466678A, “Co-administration of S-adenosyl-L-methionine to reduce the nephrotoxicity of cisplatin therapy” (priority 1992, dated 1995).
Read-outs that look alike come from different tables or passages of the source.

Assays:
[1] = in vivo, iv
[2] = system: nephrotoxicity caused by CDDP; experiment: Test Example 2: nephrotoxicity (BUN) after single administration of CDDP in the dog; format: in vivo, dog (beagle); conditions: for BUN concentration: mean ± SD
Method: Nine beagle dogs (weighing 10.2-14.5 kg; 24-36 months of age) were divided into three groups of three animals each. […] BUN values were measured every two days after the administration and compared.

[3] = intraperitoneal administration, rat; cited from earlier work
[4] = format: in vivo, rat (SD strain); conditions: for Concentration of SH compounds in blood plasma (as converted to glutathione concentration) / Concentration of SH compounds in renal tissue (as converted to glutathione concentration): mean ± S.D.
Method: Test method: To 6-week-old rats of the SD strain was intravenously administered SAMe in physiological saline (30 mg/kg, pH 6), and the blood level of SH group-containing compounds in the renal tissue was measured thereafter at 30, 60 and 120 minutes (N. Kaplowits et al., J. Pharmacol. Exp. Ther. , 1977, 200, 279-286) .
The values in the table for the concentration of SH compounds in the renal tissue and blood plasma presented as means ± standard deviation as calculated on the assumption that all the SH compounds were glutathione.

L1210 leukemic cells [5] = experiment: Test Example 7: in vitro antitumor activity, L1210; format: cell-based, mouse; conditions: test drug alone
Method: (§1) Mouse L1210 and P388 leukemic cells were adjusted to 10^4 cells/ml in culture medium RPMI 1640, and the mixture was dispensed in 2 ml portions into culture test tubes (Falcon No. 2054) and cultured at 37° C. for 5 hours in the presence of 5% carbonic acid gas in a carbonic acid gas incubator. CDDP and/or SAMes were (was) then added into each culture test tube and incubation was continued for further one hour. The cultures were centrifuged at 1,600 rpm for 5 minutes and the culture medium was removed with suction. Two ml of RPMI 1640 was added to the residue and the mixture was cultured for 72 hours under the same conditions as described above, whereafter the number of cells in each of the resulting cultures was measured on a Coulter counter (Model ZB).

tumor cells = experiment: Antitumor activity, all tumor cells tested (summary); format: cell-based, mouse and human; conditions: SAMe alone, respective tumor cells
Method: as §1
(§2) Mouse Colon 26 colon tumor cells were adjusted to 5×10^3 cells/ml in culture medium […] culture was dispensed in 2 ml portions into culture Petri dishes. […] The cells were treated with trypsin, diluted and then counted using a Coulter counter.
Human tumor cells which are listed below were adjusted to 5×10^3 -2×10^4 cells/ml in culture medium RPMI 1640 (N.B. 1) or MEM (N.B. 2), and the respective cultures were dispensed in 2 ml portions into culture Petri dishes. […] The cells were treated with trypsin, diluted and then counted using a Coulter counter.

[6] = system: MCAS ovarian cyst adenocarcinoma; experiment: Test Example 10: antitumor activity against human tumors, MCAS; format: cell-based; conditions: CDDP alone
Method: (§3) After the culture medium was removed with suction, the respective residues were washed once with cold PBS (-), supplemented with 2 ml portions of fresh medium and then cultured for further 72 hours. The cells were treated with trypsin, diluted and then counted using a Coulter counter.
(§4) Culture medium MEM: 10% fetal calf serum, Kanamycin (60 μg/ml)
MCAS: ovarian cyst adenocarcinoma;

[7] = system: MKN45 gastric adenocarcinoma; experiment: Test Example 10: antitumor activity against human tumors, MKN45; format: cell-based; conditions: CDDP alone
Method: as §3, §4
MKN45: gastric adenocarcinoma;

human tumors = experiment: Antitumor activity in vitro, human tumors (summary); format: cell-based; conditions: CDDP alone
Method: Human tumor cells which are listed below were adjusted to 5×10^3 -2×10^4 cells/ml in culture medium RPMI 1640 (N.B. 1) or MEM (N.B. 2), and the respective cultures were dispensed in 2 ml portions into culture Petri dishes. […] After the culture medium was removed with suction, the respective residues were washed once with cold PBS (-), supplemented with 2 ml portions of fresh medium and then cultured for further 72 hours. The cells were treated with trypsin, diluted and then counted using a Coulter counter.

[8] = system: Colon 26 colon tumor cells; experiment: Test Example 9: in vitro antitumor activity, Colon 26; format: cell-based, mouse; conditions: CDDP alone
Method: as §2, with “The culture medium was removed with suction, and after washing once with cold PBS(-) 2 ml portions of fresh medium were dispensed into the cultures, which were then cultured for further 72 hours. The” for “The”

PA-1 ovarian teratoma = experiment: Test Example 10: antitumor activity against human tumors, PA-1; format: cell-based; conditions: CDDP alone
Method: as §3, §4

[9] = system: A549 pulmonary adenocarcinoma; experiment: Test Example 10: antitumor activity against human tumors, A549; format: cell-based; conditions: CDDP alone
Method: as §3, §4
A549: pulmonary adenocarcinoma;

[10] = system: MKN28 gastric adenocarcinoma; experiment: Test Example 10: antitumor activity against human tumors, MKN28; format: cell-based; conditions: CDDP alone
Method: as §3, §4
MKN28: gastric adenocarcinoma;

[11] = system: DLD-1 colon adenocarcinoma; experiment: Test Example 10: antitumor activity against human tumors, DLD-1; format: cell-based; conditions: CDDP alone
Method: as §3, §4
DLD-1: colon adenocarcinoma;

P388 leukemic cells = experiment: Test Example 7: in vitro antitumor activity, P388; format: cell-based, mouse; conditions: CDDP alone
Method: The cultures were centrifuged at 1,600 rpm for 5 minutes and the culture medium was removed with suction.

LU65 pulmonary cancer = experiment: Test Example 10: antitumor activity against human tumors, LU65; format: cell-based; conditions: CDDP alone
Method: as §3, §4

[12] = system: ACHN renal adenocarcinoma; experiment: Test Example 10: antitumor activity against human tumors, ACHN; format: cell-based; conditions: CDDP alone
Method: as §3, §4
ACHN: renal adenocarcinoma

mouse tumors = experiment: Antitumor activity in vitro, mouse tumors (summary); format: cell-based; conditions: CDDP alone
Method: as §1
as §2, with “The culture medium was removed with suction, and after washing once with cold PBS(-) 2 ml portions of fresh medium were dispensed into the cultures, which were then cultured for further 72 hours. The” for “The”

L1210 leukemic cells [13] = experiment: Test Example 11: potentiation by intraperitoneally or intravenously administered SAMe against mouse tumor L1210; format: in vivo, mouse (CDF1)
Excerpt: Groups each containing six 8- to 9-week-old male CDF1 mice weighing 24-28 g were used. Mouse L1210 leukemic cells (10^5 cells) were transplanted into the abdominal cavity (on day 0).

L1210 leukemic cells [14] = experiment: Test Example 8: in vivo potentiation of antitumor activity of CDDP, L1210; set-up: species or system mouse (CDF1 strain); conditions: for Animals showing 30 days of survival / ILS: days 1 and 5; for Change in body weight: day 7 minus day 1
Excerpt: Groups each containing six 8-week-old male mice of the CDF1 strain, weighing 24-28 g, were used. Mouse L1210 leukemic cells (10^5 cells) were transplanted into the abdominal cavity (on day 0).
wherein T stands for the average number of days of survival in the CDDP-administered groups of animals, and C for that in the non-CDDP-administered group (control group) of animals.
When the animals survived 30 days or more, the number of days of survival was deemed as 30 days for the purpose of calculation.
The administration was carried out intraperitoneally each time (on days 1 and 5). […] And the changes in body weight are presented as the difference between the mean body weights on days 1 and 7 (average body weight on day 7--average body weight on day 1) for each group.

[15] = system: WiDr colon adenocarcinoma; experiment: Test Example 10: antitumor activity against human tumors, WiDr; format: cell-based; conditions: CDDP alone
Method: as §3, §4
WiDr: colon adenocarcinoma;

[16] = 30 min after SAMe 30 mg/kg i.v.
[17] = 60 min after SAMe 30 mg/kg i.v.
[18] = 120 min after SAMe 30 mg/kg i.v.

In the case of `C[S+](CC[C@H](N)C(=O)O)C[C@H]1O[C@@H](n2cnc3c(N)ncnc32)[C@H](O)[C@@H]1O` (stereo partly drawn) [SAMe, S-adenosyl-L-methionine], the “Distribution to renal tissue” value [1] is reported as “concentrates specifically at the renal tissue”, the “Metabolism at the renal tissue” value [1] is reported as “converted through the process of transmethylation to S-adenosylhomocysteine” and the BUN concentration ([2]; SAMe 30 mg/kg i.v. with CDDP 4 mg/kg, day 1) is reported as 15.0 ± 1.04 mg/dL. For the same compound, the BUN concentration ([2]; SAMe 30 mg/kg i.v. with CDDP 4 mg/kg, day 6) was 167.2 ± 102.30 mg/dL, the BUN concentration ([2]; SAMe 30 mg/kg i.v. with CDDP 4 mg/kg, day 12) was 41.62 ± 0.00 mg/dL and the “Mortality by day 7” value ([2]; SAMe 30 mg/kg with CDDP 4 mg/kg) was “two out of the three animals”. For the same compound, the BUN concentration ([2]; SAMe 100 mg/kg i.v. with CDDP 4 mg/kg, day 1) was 13.4 ± 2.80 mg/dL, the BUN concentration ([2]; SAMe 100 mg/kg i.v. with CDDP 4 mg/kg, day 6) was 27.6 ± 19.151 mg/dL and the BUN concentration ([2]; SAMe 100 mg/kg i.v. with CDDP 4 mg/kg, day 12) was 25.5 ± 13.36 mg/dL. For the same compound, the LD50 [3] was 2,000-2,500 mg/kg, the “Concentration of SH compounds in blood plasma (as converted to glutathione concentration)” value [4, 16] was 12.2 ± 2.7 μg/ml blood plasma and the “Concentration of SH compounds in renal tissue (as converted to glutathione concentration)” value [4, 16] was 1219.3 ± 68.3 μg/g organ. For the same compound, the “Concentration of SH compounds in blood plasma (as converted to glutathione concentration)” value [4, 17] was 12.5 ± 2.1 μg/ml blood plasma, the “Concentration of SH compounds in renal tissue (as converted to glutathione concentration)” value [4, 17] was 1256.0 ± 125.3 μg/g organ and the “Concentration of SH compounds in blood plasma (as converted to glutathione concentration)” value [4, 18] was 18.5 ± 3.0 μg/ml blood plasma. For the same compound, the “Concentration of SH compounds in renal tissue (as converted to glutathione concentration)” value [4, 18] was 1201.1 ± 37.8 μg/g organ, the “Accumulation in renal tissue” value ([4]; rat, in vivo, iv) was “accumulate the SAMe specifically in the renal tissue” and the IC50 (L1210 leukemic cells [5]; Mus musculus) was greater than 1000 µM. For the same compound, the IC50 (tumor cells) was no less than 1000 µM.

For `N.N.[Cl][Pt][Cl]` [CDDP, cis-diamine-dichloroplatinum], the IC50 [6] was 150 µM, the IC50 [7] was 25.4 µM and the IC50 (human tumors) was 4.1 to 150 µM. For the same compound, the IC50 [8] was 41.7 µM, the IC50 (PA-1 ovarian teratoma) was 4.1 µM and the IC50 (L1210 leukemic cells [5]) was 16.2 µM. The IC50 [9] was 18.7 µM, the IC50 [10] was 62.8 µM and the IC50 [11] was 23.5 µM. It also gave an IC50 (P388 leukemic cells) of 3.5 µM, an IC50 (LU65 pulmonary cancer) of 20.3 µM and an IC50 [12] of 48.4 µM. The IC50 (mouse tumors) was 3.5 to 41.7 µM, the ILS (L1210 leukemic cells [13]; CDDP 4 mg/kg alone, intraperitoneal) was 78% and the ILS (L1210 leukemic cells [13]; CDDP 4 mg/kg alone, intravenous) was 28%. The ILS (L1210 leukemic cells [13]; CDDP 6 mg/kg alone, intraperitoneal) was 84%, the “Animals showing 30 days of survival” value (L1210 leukemic cells [14]; CDDP 4 mg/kg alone i.p.) was 0/6 and the ILS (L1210 leukemic cells [14]; CDDP 4 mg/kg alone i.p.) was 73%. The “Change in body weight” value (L1210 leukemic cells [14]; CDDP 4 mg/kg alone i.p.) was -2.4 g, the “Animals showing 30 days of survival” value (L1210 leukemic cells [14]; CDDP 6 mg/kg alone i.p.) was 0/6 and the ILS (L1210 leukemic cells [14]; CDDP 6 mg/kg alone i.p.) was 121%. The “Change in body weight” value (L1210 leukemic cells [14]; CDDP 6 mg/kg alone i.p.) was -4.5 g and the IC50 [15] was 37.7 µM.
